Results taken from US7829591B2, “Flavanone compound and uses thereof” (Pokka Corporation, priority 2003, dated 2010).

What was measured:
[1] = DPPH radical scavenging activity test; format: biochemical; details: 25 μM sample solution in ethanol, 1 h in dark, absorbance 517 nm; average ± SD of three runs
Description: DPPH (α,α-diphenyl-β-picrylhydradil) is a purple stable radical having a maximum absorption at 517 nm, which is converted into colorless hydrazine by gaining hydrogen. This color reaction was utilized so as to determine the radical scavenging activity of each of Compounds 1 to 4 and the like. That is, each of Compounds 1 to 4 was dissolved in ethanol to prepare 3 ml of a sample solution having a concentration of 25 μM. Thereafter, to each of the resultant sample solutions, 0.75 ml of a 0.5 mM DPPH solution (whose solvent was ethanol) was added and stirred, and reacted in a dark place for one hour, followed by the determination of an absorbance at 517 nm. Furthermore, in place of Compounds 1 to 4, BHT (butylated hydroxytoluene), α-tocopherol or eriodictyol was used so as to determine an absorbance according to a similar procedure to the above. Besides, instead of the above sample solutions, ethanol was used as a control so as to determine an absorbance according to a similar procedure to the above. Then the radical scavenging activity (%) of each of the materials was calculated using the following calculation formula 1. Incidentally, each of values shown in Table 1 is the average value and standard deviation of values obtained from three runs. (Radical Scavenging Activity)=[{(Absorbance of Control)−(Absorbance of Sample Solution)}/(Absorbance of Control)]×100 Calculation Formula 1

β-carotene fading test = format: biochemical
Description: β-carotene will fade due to the reaction of linoleic acid peroxide, which is produced by the autoxidation of linoleic acid, with a double bond in β-carotene. This phenomenon was utilized so as to determine the antioxidant activity of each of Compounds 1 to 4 and the like. That is, first of all, 2 ml of a 200 mg/ml solution of Tween-40 in chloroform, 0.4 ml of a 100 mg/ml solution of linoleic acid in chloroform, and 3 ml of a 0.1 mg/ml solution of β-carotene in chloroform were mixed, and thereafter the solvent was removed by using a nitrogen gas. Subsequently, 100 ml of distilled water was added thereto, and adequately stirred to obtain an emulsion. To 3 ml of this emulsion, ethanol was added to completely dissolve the solute in the solvent. Thereafter, each of Compounds 1 to 4 was dissolved in ethanol so as to prepare a sample solution having a concentration of 1.2 mM. 50 μl of the sample solution was mixed with the above emulsion wherein the solute had been completely dissolved so as to prepare a reaction liquid (or a sample reaction liquid). Then the concentration of each of Compounds 1 to 4 in the reaction liquid was 20 μM. The reaction liquid was incubated at 60° C. for 60 minutes. Then the absorbance of each of the reaction liquid before the incubation and the reaction liquid after the incubation was determined at 470 nm. Furthermore, BHT, α-tocopherol, or eriodictyol was used in place of Compounds 1 to 4 so as to determine the absorbance of the reaction liquid before and after incubation according to a similar procedure to the above-mentioned one. In addition, as a control, a reaction liquid (or a control reaction liquid) wherein no sample solution was contained was prepared so as to determine the absorbance of the reaction liquid before and after incubation according to a similar procedure to the above-mentioned one. The antioxidant activity (%) of each of the materials was calculated using the following calculation formula 2. Incidentally, each of values shown in Table 1 is the average value and standard deviation of values obtained from three runs. (Antioxidant Activity)=[{(Fading Rate of Control)−(Fading Rate of Sample Solution)}/(Fading Rate of Control)]×100 Calculation Formula 2
It should be noted that in the calculation formula 2, “Fading Rate of Control” is the natural logarithm of a value which is acquired by dividing the absorbance of the control reaction liquid before incubation by the absorbance of the control reaction liquid after incubation and further by dividing the resultant value by 60; and “Fading Rate of Sample Solution” is the natural logarithm of a value which is acquired by dividing the absorbance of the sample reaction liquid before incubation by the absorbance of the sample reaction liquid after incubation and further by dividing the resultant value by 60.

Bacillus cereus (B. ce) = assay: Antimicrobial activity test with Compounds 1 to 4; format: cell-based
Description: (§1) That is, first of all, each of Compounds 1 to 4 was dissolved in 70% ethanol, and thereafter, standard agar media were prepared wherein the concentration of each of Compounds 1 to 4 was adjusted to be 0 ppm, 5 ppm, 10 ppm, 15 ppm, 20 ppm, or 50 ppm. Subsequently, these standard agar media were subjected to autoclave sterilization so as to prepare evaluation media, and each of the biological indicators was inoculated in each of these evaluation media. After the incubation of each of the bacteria, the number of the bacteria per a petri dish (CFU/petri dish) was determined.

E. coli = assay: Antimicrobial activity test with Compounds 1 to 4; format: cell-based
Description: as §1

[2] = test system: Salmonella enteritidis (S. en; NBRC3313); assay: Antimicrobial activity test with Compounds 1 to 4; format: cell-based
Description: as §1

[3] = test system: Staphylococcus aureus (Sta.); assay: Antimicrobial activity test with Compounds 1 to 4; format: cell-based
Description: as §1

CC(C)=CCC/C(C)=C/Cc1cc([C@@H]2CC(=O)c3c(O)cc(O)cc3O2)cc(O)c1O [Compound 2, 5,7,3′,4′-tetrahydroxy-5′-C-geranylflavanone]
Radical Scavenging Activity (%) from DPPH Radical Scavenging Activity Test [1]: 49.86 ± 0.96% | Antioxidant Activity (%) from β-carotene Fading Test (β-carotene fading test; 20 μM in reaction liquid, 60° C. for 60 minutes, absorbance 470 nm, average ± SD of three runs): 78.07 ± 1.79% | antioxidant activity (in words) (β-carotene fading test; comparison from Table 1): about the same high antioxidant activity as that of each of BHT, α-tocopherol, and eriodictyol | effect on growth and development of spore forming bacteria, B. ce (in words) (Bacillus cereus (B. ce); 5-50 ppm): more strongly the growth and development of each of Gram-5 positive bacteria and spore forming bacteria is inhibited | Number of Bacteria, B. ce (Bacillus cereus (B. ce); 5 ppm in standard agar medium, 0 ppm: 13 (Table 3), 183 (Table 4)): 17 CFU/petri dish | Number of Bacteria, B. ce (Bacillus cereus (B. ce); 10 ppm in standard agar medium): 0 CFU/petri dish | Number of Bacteria, B. ce (Bacillus cereus (B. ce); 15 ppm in standard agar medium): 0 CFU/petri dish | Number of Bacteria, B. ce (Bacillus cereus (B. ce); 20 ppm in standard agar medium): 0 CFU/petri dish | Number of Bacteria, B. ce (Bacillus cereus (B. ce); 50 ppm in standard agar medium): 0 CFU/petri dish | effect on growth and development of E. coli (in words) (E. coli; 5-50 ppm): little effect upon the growth and development | Number of Bacteria, E. coli (E. coli; 5 ppm in standard agar medium, 0 ppm: >3000 (Table 3), 5 (Table 4)): >3000 CFU/petri dish | Number of Bacteria, E. coli (E. coli; 10 ppm in standard agar medium): >3000 CFU/petri dish | Number of Bacteria, E. coli (E. coli; 15 ppm in standard agar medium): >3000 CFU/petri dish | Number of Bacteria, E. coli (E. coli; 20 ppm in standard agar medium): >3000 CFU/petri dish | Number of Bacteria, E. coli (E. coli; 50 ppm in standard agar medium): >3000 CFU/petri dish | effect on growth and development of S. en (in words) ([2]; 5-50 ppm): little effect upon the growth and development | Number of Bacteria, S. en ([2]; 5 ppm in standard agar medium, 0 ppm: >3000 (Table 3), 221 (Table 4)): >3000 CFU/petri dish | Number of Bacteria, S. en ([2]; 10 ppm in standard agar medium): >3000 CFU/petri dish | Number of Bacteria, S. en ([2]; 15 ppm in standard agar medium): >3000 CFU/petri dish | Number of Bacteria, S. en ([2]; 20 ppm in standard agar medium): >3000 CFU/petri dish | Number of Bacteria, S. en ([2]; 50 ppm in standard agar medium): >3000 CFU/petri dish | effect on growth and development of Gram-positive bacteria, Sta. (in words) ([3]; 5-50 ppm): more strongly the growth and development of each of Gram-5 positive bacteria and spore forming bacteria is inhibited | Number of Bacteria, Sta. ([3]; 5 ppm in standard agar medium, 0 ppm: 470 (Table 3), 202 (Table 4)): 395 CFU/petri dish | Number of Bacteria, Sta. ([3]; 10 ppm in standard agar medium): 108 CFU/petri dish | Number of Bacteria, Sta. ([3]; 15 ppm in standard agar medium): 22 CFU/petri dish | Number of Bacteria, Sta. ([3]; 20 ppm in standard agar medium): 0 CFU/petri dish | Number of Bacteria, Sta. ([3]; 50 ppm in standard agar medium): 0 CFU/petri dish
